Results from patent publication US7338958B2, “Sulfoximine-substituted pyrimidines as CDK-and/or VEGF inhibitors, their production and use as pharmaceutical agents” (Schering AG, priority 2003, dated 2008).

Key:
[1] = tested on: NCI-H460, human non-small-cell lung cancer cells; test: Proliferation assay, H460; assay type: cell-based; conditions: NCI-H460, 96 h, 4 days incubation, crystal violet
In short: (§1)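 Cells seeded ~5000/well, treated after 24 h with 0.01-30 μM compound (0.5% DMSO) for 4 days. Glutaraldehyde-fixed cells stained with crystal violet, absorbance at 595 nm; growth expressed as percent, normalized to zero-point plate (0%) and untreated cells (100%).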

[2] = tested on: DU 145, hormone-independent human prostate cancer cells; test: Proliferation assay, DU145; assay type: cell-based; conditions: DU-145, 96 h, 4 days incubation, crystal violet
In short: as §1

[3] = tested on: HCT 116, human colon cancer cells; test: Proliferation assay, HCT116; assay type: cell-based; conditions: HCT-116, 96 h, 4 days incubation, crystal violet
Description: Cultivated human tumor cells (MCF7, hormone-independent human breast cancer cells, related to ATCC HTB22; NCI-H460, human non-small-cell lung cancer cells, ATCC HTB-177, HCT 116, human colon cancer cells, ATCC CCL-247; DU 145, hormone-independent human prostate cancer cells, ATCC HTB-81; MaTu-MDR, hormone-independent, multiple pharmaceutical agent-resistant human breast cancer cells, EPO-GmbH, Berlin) were flattened out at a density of about 5000 cells/measuring point, depending on the growth rate of the respective cells, in a 96-well multititer plate in 200 μl of the corresponding growth medium. After 24 hours, the cells of one plate (zero-point plate) were colored with crystal violet (see below), while the medium of the other plates was replaced by fresh culture medium (200 μl), to which the test substances were added in various concentrations (0 μm, as well as in the range of 0.01-30 μm; the final concentration of the solvent dimethyl sulfoxide was 0.5%). The cells were incubated for 4 days in the presence of test substances. The cell proliferation was determined by coloring the cells with crystal violet: the cells were fixed by adding 20 μl/measuring point of an 11% glutaric aldehyde solution for 15 minutes at room temperature. After three washing cycles of the fixed cells with water, the plates were dried at room temperature. The cells were colored by adding 100 μl/measuring point of a 0.1% crystal violet solution (the pH was set at 3 by adding acetic acid). After three washing cycles of the colored cells with water, the plates were dried at room temperature. The dye was dissolved by adding 100 μl/measuring point of a 10% acetic acid solution. The extinction was determined by photometry at a wavelength of 595 nm. The change of cell growth, in percent, was calculated by normalization of the measured values to the extinction values of the zero-point plate (=0%) and the extinction of the untreated (0 μm) cells (=100%).

[4] = tested on: MCF7, hormone-independent human breast cancer cells; test: Proliferation assay, MCF7; assay type: cell-based; conditions: MCF7, 96 h, 4 days incubation, crystal violet
In short: as §1

[5] = biological target: T1, VEGF receptor tyrosine kinase-2 (Homo sapiens, UniProt P35968); test: VEGF Receptor-2 Kinase Assay; assay type: biochemical; conditions: poly-(Glu4Tyr) substrate, 33P-ATP, 10 minutes at 22° C.; read-out: VEGF-R2 IC50
T1 construct: GST; made in house; host or cells: baculovirus-infected insect cells (Sf9)

[6] = biological target: Human Carboanhydrase-2 (Homo sapiens, UniProt P00918); test: Carboanhydrase Assay; assay type: biochemical; conditions: 4-nitrophenyl acetate hydrolysis, 400 nm; read-out: Inhibition of Human Carboanhydrase-2 IC50
Description: 2 μl of the test compounds, dissolved in DMSO (100× the final concentration), in a concentration range of 0.03-10 μm (final), was pipetted as 4× determinations into the holes of a 96-hole microtiter plate. Holes that contained the solvent without test compounds were used as reference values (1. Holes without carboanhydrase for correction of the non-enzymatic hydrolysis of the substrate, and 2. Holes with carboanhydrase for determining the activity of the non-inhibited enzyme).
188 μl of assay buffer (10 mmol of Tris/HCl, pH 7.4, 80 mmol of NaCl), with or without 3 units/hole on carboanhydrase I or II, was pipetted into the holes of the microtiter plate.

[7] = tested on: MaTu-ADR; test: Proliferation assay, MaTu-ADR; assay type: cell-based; conditions: Homo sapiens, 96 h, MaTu-ADR cells, 4 days incubation, crystal violet
In short: as §1

[8] = biological target: T2, CDK1/CycB (Homo sapiens, UniProt P06493); test: CDK1/CycB Kinase Assay; assay type: biochemical; conditions: histone IIIS substrate, 33P-ATP, 15 minutes at 22° C.
T2 construct: GST; purchased ProQinase GmbH, Freiburg; host or cells: baculovirus-infected insect cells (Sf9)

[9] = biological target: T3, CDK2/CycE (Homo sapiens, UniProt P24941); test: CDK2/CycE Kinase Assay; assay type: biochemical; conditions: histone IIIS substrate, 33P-ATP, 15 minutes at 22° C.
T3 construct: GST; purchased ProQinase GmbH, Freiburg; host or cells: baculovirus-infected insect cells (Sf9)
In short: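 Recombinant GST-tagged CDK2/CycE from Sf9 cells (50 ng/point) was incubated with compound (0.01-100 μM) for 15 min at 22° C, pH 8.0, with 0.5 μM ATP plus ^33P-γ-ATP and histone IIIS as substrate, in 12.5% DMSO. Incorporated ^33P was counted after filter binding and washing.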

T2 sequence (P06493 whole entry): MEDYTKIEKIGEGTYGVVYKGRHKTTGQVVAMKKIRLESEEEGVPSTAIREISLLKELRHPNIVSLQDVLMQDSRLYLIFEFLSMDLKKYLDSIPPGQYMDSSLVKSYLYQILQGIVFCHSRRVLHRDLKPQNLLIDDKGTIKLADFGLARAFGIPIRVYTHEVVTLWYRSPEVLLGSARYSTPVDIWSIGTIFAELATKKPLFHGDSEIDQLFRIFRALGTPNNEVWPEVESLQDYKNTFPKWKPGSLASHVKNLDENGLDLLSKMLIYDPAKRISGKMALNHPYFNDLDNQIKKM
T2 sequence (P14635 whole entry partner): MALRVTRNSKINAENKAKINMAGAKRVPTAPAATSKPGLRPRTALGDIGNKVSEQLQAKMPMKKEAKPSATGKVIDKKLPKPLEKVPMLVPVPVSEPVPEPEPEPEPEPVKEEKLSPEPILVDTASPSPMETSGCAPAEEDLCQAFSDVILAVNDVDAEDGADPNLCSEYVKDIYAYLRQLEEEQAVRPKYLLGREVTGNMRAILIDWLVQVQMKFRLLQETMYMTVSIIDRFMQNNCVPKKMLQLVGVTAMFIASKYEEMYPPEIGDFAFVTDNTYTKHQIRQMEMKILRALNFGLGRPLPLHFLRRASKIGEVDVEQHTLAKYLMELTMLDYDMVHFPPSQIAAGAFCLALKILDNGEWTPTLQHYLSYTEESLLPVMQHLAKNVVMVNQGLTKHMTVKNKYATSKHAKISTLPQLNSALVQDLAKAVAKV
T1 sequence (P35968 20-1356): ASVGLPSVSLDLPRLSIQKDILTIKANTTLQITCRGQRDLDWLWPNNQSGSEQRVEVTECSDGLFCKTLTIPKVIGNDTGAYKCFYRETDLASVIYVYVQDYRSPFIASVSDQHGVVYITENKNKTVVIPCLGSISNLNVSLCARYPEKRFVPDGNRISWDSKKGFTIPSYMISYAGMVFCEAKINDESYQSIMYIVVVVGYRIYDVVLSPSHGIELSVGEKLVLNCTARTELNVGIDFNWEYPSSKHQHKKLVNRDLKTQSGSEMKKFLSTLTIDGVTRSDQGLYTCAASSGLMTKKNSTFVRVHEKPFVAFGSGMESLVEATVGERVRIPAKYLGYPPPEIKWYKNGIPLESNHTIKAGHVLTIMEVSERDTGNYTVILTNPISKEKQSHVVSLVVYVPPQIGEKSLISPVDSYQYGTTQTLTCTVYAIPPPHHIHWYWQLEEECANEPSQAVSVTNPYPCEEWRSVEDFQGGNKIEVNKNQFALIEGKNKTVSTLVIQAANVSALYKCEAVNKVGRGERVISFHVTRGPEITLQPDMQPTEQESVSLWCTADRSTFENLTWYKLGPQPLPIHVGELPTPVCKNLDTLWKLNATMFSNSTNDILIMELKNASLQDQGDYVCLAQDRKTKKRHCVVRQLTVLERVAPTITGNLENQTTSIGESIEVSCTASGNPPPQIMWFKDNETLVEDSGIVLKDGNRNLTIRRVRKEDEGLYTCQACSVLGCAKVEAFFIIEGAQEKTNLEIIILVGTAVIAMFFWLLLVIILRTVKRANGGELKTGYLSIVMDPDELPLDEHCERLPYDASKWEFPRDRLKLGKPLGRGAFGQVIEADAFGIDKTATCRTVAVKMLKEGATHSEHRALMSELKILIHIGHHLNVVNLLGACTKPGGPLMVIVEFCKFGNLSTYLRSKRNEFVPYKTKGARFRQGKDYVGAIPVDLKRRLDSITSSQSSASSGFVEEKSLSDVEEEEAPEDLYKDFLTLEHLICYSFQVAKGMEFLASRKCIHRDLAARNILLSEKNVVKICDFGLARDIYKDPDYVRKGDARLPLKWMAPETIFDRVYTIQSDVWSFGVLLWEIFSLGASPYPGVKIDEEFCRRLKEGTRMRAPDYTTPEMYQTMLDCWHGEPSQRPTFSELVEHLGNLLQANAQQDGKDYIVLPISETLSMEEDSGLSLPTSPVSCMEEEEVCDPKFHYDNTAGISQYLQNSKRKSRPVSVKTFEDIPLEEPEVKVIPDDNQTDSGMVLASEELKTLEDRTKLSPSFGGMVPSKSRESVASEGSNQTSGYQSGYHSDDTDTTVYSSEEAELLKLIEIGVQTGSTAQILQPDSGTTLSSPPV

Question: `C[C@H](CO)Nc1nc(Nc2ccc(S(C)(=N)=O)cc2)ncc1Br` (mixture of isomers) [Example 1.0, (RS)-S-[4-({5-Bromo-4-[(R)-(2-hydroxy-1-methylethyl)amino]pyridimin-2-yl}amino)phenyl]-S-methyl sulfoximide] was tested. Which IC50 [1] did it give?
Answer: 1200 nM

Question: What about the IC50 [2] of the same compound?
Answer: 1500 nM

Question: What about the IC50 [3] of the same compound?
Answer: 400 nM

Question: And the IC50 [4]?
Answer: 300 nM

Question: What about the IC50 [5] of the same compound?
Answer: 40 nM

Question: What about the IC50 [6] of the same compound?
Answer: > 10000 nM

Question: What about the IC50 [7] of the same compound?
Answer: 1600 nM

Question: And the IC50 [8]?
Answer: 79 nM

Question: And the IC50 [9]?
Answer: < 10 nM

Question: `CC(C)Nc1nc(Nc2ccc(S(C)(=N)=O)cc2)ncc1Br` (racemic) [Example 2.0, (RS)-S-(4-{[5-bromo-4-(isopropylamino)pyrimidin-2-yl]amino}phenyl)-S-methyl sulfoximide] was tested. Which IC50 [1] did it give?
Answer: 300 nM

Question: What about the IC50 [2] of the same compound?
Answer: 1700 nM

Question: And the IC50 [3]?
Answer: 300 nM

Question: And the IC50 [4]?
Answer: 1500 nM

Question: And the IC50 [6]?
Answer: > 10000 nM

Question: And the IC50 [7]?
Answer: 400 nM

Question: What about the IC50 [8] of the same compound?
Answer: 110 nM
